Series [1] is described as follows: ABTS•+ decolorization assay. In short, it runs like this: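 Compounds (10 mM DMSO stocks, diluted) added to ABTS•+ radical generated by potassium persulfate oxidation of ABTS. Decolorization followed as absorbance at room temperature, with Trolox as standard.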
Series [2] deals with L929 mouse fibroblasts cells. Briefly: Cytotoxicity, propidium iodide fluorescence method. In kind it is cell-based. The note with it: 24-h incubation. As to the method: The cytotoxicity of the synthesized derivatives against L929 mouse fibroblasts cells was determined using the propidium iodide (PI) fluorescence method in the presence of different concentrations (1–100 μM) of these compounds. The results are presented in Table 4 in the form of the % cell survival values as PI% for the examined compounds. […] Chalcones c7, c8, c11, and c12 follow.
L929 mouse fibroblasts cells were cultured in EMEM supplemented with 10% horse serum, 2 mM L-glutamine, 1 mM sodium pyruvate, 0.1 mM nonessential amino acids, 1.5 g/L sodium bicarbonate, and 100 μg/mL penicillin–streptomycin at 37 °C in a humidified atmosphere with 5% CO2. L929 cells were plated into 24-well plates at a density […] and allowed to attach and grow for 24 h. The supernatant in each well then replaced with medium containing various concentrations (1, 10, 20, 50 and 100 μM) of compounds a5–12, c5–12, di, and dii–dvi, which presented the more interesting results in the in vitro experiments. After 24-h incubation, the supernatant was removed and the cells were washed with PBS. The cells were detached with 0.25% trypsin, transferred to FACS tubes, and then centrifuged (1600 rpm for 5 min) and the pellet washed with PBS. After washing, the cells in the pellet were incubated with 5 μL propidium iodide (PI) solution (1 mg/mL) for 1 min. The PI fluorescence (cell death) was determined with flow cytometry, FACS Calibur, Coulter Epics XL-MCL (Beckman, Inc., Mount Holly, NJ, USA). The analysis of flow cytometry data was performed with the WinMDI analysis program (Table 4).

The next series addresses T1, soybean lipoxygenase (Glycine max, UniProt P08170).
T1 sequence (P08170 1-839): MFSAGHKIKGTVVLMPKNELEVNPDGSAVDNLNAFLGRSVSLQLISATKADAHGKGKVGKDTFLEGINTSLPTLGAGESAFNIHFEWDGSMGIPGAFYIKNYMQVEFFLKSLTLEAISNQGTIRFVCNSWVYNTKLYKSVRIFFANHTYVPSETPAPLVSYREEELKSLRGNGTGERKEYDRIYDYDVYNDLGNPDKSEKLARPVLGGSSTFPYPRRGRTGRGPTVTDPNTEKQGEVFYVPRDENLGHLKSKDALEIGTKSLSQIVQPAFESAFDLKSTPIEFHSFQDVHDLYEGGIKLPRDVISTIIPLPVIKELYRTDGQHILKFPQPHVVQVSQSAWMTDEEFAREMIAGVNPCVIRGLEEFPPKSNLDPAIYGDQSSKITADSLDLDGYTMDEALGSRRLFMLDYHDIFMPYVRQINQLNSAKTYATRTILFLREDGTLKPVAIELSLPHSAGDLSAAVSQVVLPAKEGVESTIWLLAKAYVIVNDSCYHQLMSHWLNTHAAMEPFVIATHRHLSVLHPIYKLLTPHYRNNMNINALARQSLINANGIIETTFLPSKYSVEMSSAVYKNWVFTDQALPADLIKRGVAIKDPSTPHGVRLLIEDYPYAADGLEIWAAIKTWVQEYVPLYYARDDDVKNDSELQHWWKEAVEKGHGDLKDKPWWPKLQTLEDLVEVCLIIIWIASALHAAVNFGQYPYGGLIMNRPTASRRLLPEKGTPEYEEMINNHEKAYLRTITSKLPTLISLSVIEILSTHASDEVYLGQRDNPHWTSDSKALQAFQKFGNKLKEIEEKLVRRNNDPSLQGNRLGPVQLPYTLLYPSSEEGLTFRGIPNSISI
Briefly: biochemical. In kind it is biochemical. The following applies: soybean LOX. In short, it runs like this: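 Soybean LOX (enzyme solution 1/9 × 10^−4 w/v in saline) incubated at room temperature with sodium linoleate ([…]) in tris buffer pH 9. Compounds added from DMSO stocks. IC50 derived from several concentrations.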

Series [3] can be described thus: Reducing activity with the stable radical DPPH. In short, it runs like this: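 DPPH (final 0.05 mM) in absolute ethanol mixed with an equal volume of compound at 0.05 or 0.1 mM, ethanol as control. Absorbance at 517 nm read at room temperature after 20 and 60 min, expressed as reducing activity RA%.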
The nature of series [4]: Inhibition of linoleic acid lipid peroxidation (AAPH). In short, it runs like this:
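Sodium linoleate oxidation was initiated by AAPH in 0.05 M phosphate buffer, pH 7.4, at 37 °C, with test compound present and DMSO as blank. Conjugated diene hydroperoxide formation was followed as the absorbance increase at 234 nm.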

Series [5] can be described thus: Lipophilicity as RM values by RP-TLC. The series is classed as physicochemical. The arrangement: key: RM = log[(1/Rf) − 1]. The following applies: methanol/water 70/30, SD < 10%. In short, it runs like this: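 Reversed-phase TLC on silica gel plates impregnated with 5% (v/v) liquid paraffin, methanol/water 70/30 (v/v) mobile phase, saturated tanks at 24 °C, UV detection. RM = log[(1/Rf) − 1] from five Rf measurements.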

For the molecule `CC(/C=C/C(=O)c1ccc(OCCCOc2ccc(C(=O)/C=C/C(C)=C/c3ccccc3)cc2)cc1)=C\c1ccccc1` [c8, (2E,2′E,4E,4′E)-1,1′-((propane-1,3-diylbis(oxy))bis(4,1-phenylene))bis(4-methyl-5-phenylpenta-2,4-dien-1-one)], the “ABTS•+ Inhb. % @ 100 μM” value in series [1] was “No”. Besides, in series [2], the “1 μM Average (% pi) ± σ” value came out at 35.72 ± 10.23%, the “10 μM Average (% pi) ± σ” value is listed as 29.05 ± 9.62%, the “20 μM Average (% pi) ± σ” value is listed as 35.69 ± 5.85% and the “50 μM Average (% pi) ± σ” value amounted to 38.7 ± 4.96%. The “100 μM Average (% pi) ± σ” value in series [2] is listed as 38.7 ± 4.96%. Besides, the “% LOX Inhb. @ 100 μM” value on soybean lipoxygenase amounted to 26.5%. For the same molecule, in series [3], the “RA% 100 μM 20 min” value is “No” and the “RA% 100 μM 60 min” value is reported as “no”. Moreover, in series [4], the “AAPH% @ 100 μM (anti-lipid peroxidation)” value was determined as 75%. The RM in series [5] is recorded as −0.85.

For the molecule `O=C(/C=C/c1cccs1)c1ccc(O)cc1` [a5, (E)-1-(4-hydroxyphenyl)-3-(thiophen-2-yl) prop-2-en-1-one], the “ABTS•+ Inhb. % @ 100 μM” value in series [1] is given as “No”. In addition, in series [2], the “1 μM Average (% pi) ± σ” value came out at 11.36 ± 0.62%, the “20 μM Average (% pi) ± σ” value stood at 28.32 ± 2.91%, the “50 μM Average (% pi) ± σ” value is on record as 36.15 ± 2.33% and the “100 μM Average (% pi) ± σ” value was determined as 36.15 ± 2.33%. The “% LOX Inhb. @ 100 μM” value on soybean lipoxygenase is 9%. Besides, in series [3], the “RA% 100 μM 20 min” value was found to be 17% and the “RA% 100 μM 60 min” value is 3%. Moreover, the “AAPH% @ 100 μM (anti-lipid peroxidation)” value in series [4] amounted to 23%. The molecule also yielded an RM in series [5] of −0.62.

On to `O=C(/C=C/C=C/c1ccccc1)c1ccc(OCCCOc2ccc(C(=O)/C=C/C=C/c3ccccc3)cc2)cc1` [c7, (2E,2′E,4E,4′E)-1,1′-((propane-1,3-diylbis(oxy))bis(4,1-phenylene))bis(5-phenylpenta-2,4-dien-1-one)], for which, in series [1], the “ABTS•+ Inhb. % @ 100 μM” value was “No”. In addition, in series [2], the “1 μM Average (% pi) ± σ” value amounted to 22.5 ± 11.64%, the “10 μM Average (% pi) ± σ” value stood at 28.73 ± 11.78%, the “20 μM Average (% pi) ± σ” value is 25.4 ± 8.42% and the “50 μM Average (% pi) ± σ” value is given as 28.84 ± 5.62%. In series [2], the “100 μM Average (% pi) ± σ” value is given as 28.84 ± 5.62%. In addition, the “% LOX Inhb. @ 100 μM” value on soybean lipoxygenase came out at 41%. Further, in series [3], the “RA% 100 μM 20 min” value was “No” and the “RA% 100 μM 60 min” value is “no”. The “AAPH% @ 100 μM (anti-lipid peroxidation)” value in series [4] is 82%. In series [5], the RM is reported as −0.77.

Turning to `O=C(/C=C/C=C/c1ccc([N+](=O)[O-])cc1)c1ccc(O)cc1` [a11, (2E,4E)-1-(4-hydroxyphenyl)-5-(4-nitrophenyl) penta-2,4-dien-1-one], the “ABTS•+ Inhb. % @ 100 μM” value in series [1] is reported as 14%. Moreover, in series [2], the “10 μM Average (% pi) ± σ” value stood at 6.26 ± 3%, the “20 μM Average (% pi) ± σ” value amounted to 18.81 ± 2.57%, the “50 μM Average (% pi) ± σ” value was found to be 67.84 ± 6.45% and the “100 μM Average (% pi) ± σ” value turned out to be 67.84 ± 6.45%. Moreover, the “% LOX Inhb. @ 100 μM” value at soybean lipoxygenase is on record as 36%. In series [3], the “RA% 100 μM 20 min” value stood at 7% and the “RA% 100 μM 60 min” value is reported as 3%. In addition, the “AAPH% @ 100 μM (anti-lipid peroxidation)” value in series [4] came to 55%. This molecule showed an RM in series [5] of −1.09.

Regarding `O=C(/C=C/C=C/c1ccccc1)c1ccc(O)cc1` [a7, (2E,4E)-1-(4-hydroxyphenyl)-5-phenylpenta-2,4-dien-1-one], the “ABTS•+ Inhb. % @ 100 μM” value in series [1] came out at 12%. Moreover, in series [2], the “1 μM Average (% pi) ± σ” value turned out to be 6.85 ± 3.12%, the “10 μM Average (% pi) ± σ” value came to 9.27 ± 1.9%, the “20 μM Average (% pi) ± σ” value was 9.24 ± 6.49% and the “50 μM Average (% pi) ± σ” value was determined as 60.95 ± 0.01%. Besides, in series [2], the “100 μM Average (% pi) ± σ” value came out at 60.95 ± 0.01%. Also, at soybean lipoxygenase, the “% LOX Inhb. @ 100 μM” value came to 4%. In series [3], the “RA% 100 μM 20 min” value worked out at 19% and the “RA% 100 μM 60 min” value worked out at 6%. Further, the “AAPH% @ 100 μM (anti-lipid peroxidation)” value in series [4] turned out to be 31%. In addition, the RM in series [5] is given as −0.64.

The IC50 is the point on the concentration scale where inhibition reaches its midpoint. Regarding `O=C(/C=C/c1ccco1)c1ccc(OCCCOc2ccc(C(=O)/C=C/c3ccco3)cc2)cc1` [c10, (2E,2′E)-1,1′-((propane-1,3-diylbis(oxy))bis(4,1-phenylene))bis(3-(furan-2-yl)prop-2-en-1-one)], the “ABTS•+ Inhb. % @ 100 μM” value in series [1] was 11%. Besides, in series [2], the “1 μM Average (% pi) ± σ” value was determined as 18.10 ± 11.82%, the “10 μM Average (% pi) ± σ” value amounted to 13.48 ± 10.36%, the “20 μM Average (% pi) ± σ” value was determined as 25.93 ± 9.73% and the “50 μM Average (% pi) ± σ” value is 32.11 ± 9.38%. Further, the “100 μM Average (% pi) ± σ” value in series [2] is on record as 32.11 ± 9.38%. Also, on soybean lipoxygenase, the “% LOX Inhb. @ 100 μM” value is listed as 57%. Moreover, on soybean lipoxygenase (read-out: LOX IC50), the IC50 is 85 µM. Also, in series [3], the “RA% 100 μM 20 min” value is “No” and the “RA% 100 μM 60 min” value is “no”. Besides, in series [4], the “AAPH% @ 100 μM (anti-lipid peroxidation)” value amounted to 77%. The same molecule showed an RM in series [5] of 0.7.

As to `CC(/C=C/C(=O)c1ccc(O)cc1)=C\c1ccccc1` [a8, (2E,4E)-1-(4-hydroxyphenyl)-4-methyl-5-phenylpenta-2,4-dien-1-one], in series [1], the “ABTS•+ Inhb. % @ 100 μM” value is recorded as “No”. Also, in series [2], the “1 μM Average (% pi) ± σ” value is recorded as 1.39 ± 0.1%, the “10 μM Average (% pi) ± σ” value is on record as 2.95 ± 1.23%, the “20 μM Average (% pi) ± σ” value turned out to be 1.84 ± 2.05% and the “50 μM Average (% pi) ± σ” value came to 8.15 ± 0.34%. Further, the “100 μM Average (% pi) ± σ” value in series [2] was 8.15 ± 0.34%. Besides, at soybean lipoxygenase, the “% LOX Inhb. @ 100 μM” value is listed as 14%. Further, in series [3], the “RA% 100 μM 20 min” value is on record as 6% and the “RA% 100 μM 60 min” value is 2%. Moreover, the “AAPH% @ 100 μM (anti-lipid peroxidation)” value in series [4] is 32%. The same molecule had an RM in series [5] of −0.68.

The values are drawn from paper PMC6337391 (Molecules, 2019).
